Measured values reported in PMC3514653 (Neuromodulation : journal of the International …, 2012).
Read-outs that look alike come from different tables or passages of the source. Marks after values point to notes of the source that are not given here.

Legend:
in vivo [1] = settings: male, beagle, dog, 10 ug
Male beagle dogs [2] = settings: dog, in vivo
[3] = dog, in vivo
Male beagle dogs [4] = settings: dog, in vivo; remark: listed apart in the source
[5] = in vivo; cited from earlier work
Male beagle dogs [6] = settings: dog, in vivo; remark: listed apart in the source
[7] = dog, in vivo; remark: listed apart in the source
Male beagle dogs [8] = settings: dog, in vivo, iv, 0.1 mg/kg
in vivo [9] = settings: male, beagle, dog, iv, 0.1 mg/kg
[10] = in vivo; cited from earlier work; remark: listed apart in the source
[11] = dog, in vivo; remark: listed apart in the source
in vivo [12] = settings: beagle, dog

CSCC[C@@H]1NC(=O)[C@H](CC(C)C)NC(=O)[C@H](CCCNC(=N)N)NC(=O)[C@H](CO)NC(=O)[C@@H]2CSSC[C@@H]3NC(=O)[C@H](CO)NC(=O)CNC(=O)[C@H]([C@@H](C)O)NC(=O)[C@H](CSSC[C@H](N)C(=O)N[C@@H](CCCCN)C(=O)NCC(=O)N[C@@H](CCCCN)C(=O)NCC(=O)N[C@@H](C)C(=O)N[C@@H](CCCCN)C(=O)N2)NC(=O)[C@H](CSSC[C@@H](C(N)=O)NC(=O)[C@H](CCCCN)NC(=O)CNC(=O)[C@H](CO)NC(=O)[C@H](CCCNC(=N)N)NC3=O)NC(=O)[C@H](CC(=O)O)NC(=O)[C@H](Cc2ccc(O)cc2)NC1=O [Ziconotide]
CL/F (in vivo [1]): 196 mL/min | Vd/F (in vivo [1]): 17.2 L | AUC(0-inf) (in vivo [1]; AUC∞): 0.85 ng·h/mL | bioavailability (in vivo [1]; iv): 53.5% | Body temperature versus baseline (Male beagle dogs [2]): not different from pretreatment baseline measurements | Time for elevated temperatures to return to baseline (Male beagle dogs [2]): 24 to 72 h | Body temperature versus baseline (Male beagle dogs [2]; iv): not different from pretreatment baseline measurements | Elimination T1/2 in CSF following IV injection [3]: 1.64 h | Elimination T1/2 in plasma following IV injection [3]: 0.75 h | Elimination half life after bolus IV delivery [3]: 1.6 h | FCSF (absolute bioavailability in CSF after bolus IV) [3]: 0.013% | Arousal, muscle tone, and coordination (Male beagle dogs [4]): not affected | Diarrhea, dogs affected (Male beagle dogs [4]): 3 of the 5 | Severity of whole body trembling and ataxia (Male beagle dogs [4]): tendency for this to increase in severity | Whole body trembling, dogs affected (Male beagle dogs [4]): 3 of the 5 | Persistence of observed effects (Male beagle dogs [4]; iv, 0.1 mg/kg): absent 24 hr post injection | Scleral vasodilation and facial erythema, dogs affected (Male beagle dogs [4]; iv, 0.1 mg/kg): 2 of the 5 | Vomiting, dogs affected (Male beagle dogs [4]; iv, 0.1 mg/kg): 4 of the 5 | Median LCSF half-life [5]: 4.5 h | Volume of distribution [5]: 99 mL | Blood pressure and heart rate effect (Male beagle dogs [6]): modest decline in mean, diastolic, and systolic pressures and a mild tachycardia | Effect upon blood pressure (Male beagle dogs [6]): no effect upon blood pressure | Effect upon mean, diastolic, and systolic blood pressures (Male beagle dogs [6]): prominent reduction that persisted for the remainder of the infusion | Duration of fall in blood pressures (Male beagle dogs [6]; iv, 0.1 mg/kg): > 8 h | Effect upon heart rate (Male beagle dogs [6]; iv, 0.1 mg/kg): corresponding tachycardia | Fall in mean, diastolic, and systolic pressures (Male beagle dogs [6]; iv, 0.1 mg/kg): approximately 40 mmHg | CSF : plasma ratio [7]: approximately 20,000: 1 | Time of peak concentration in LCSF [7]: ≤ 3 min | Vz/F [7]: 12932 – 33328^b mL | Respiratory rates (Male beagle dogs [8]): moderate decrease in respiratory rates for approximately 3 hr post injection | Cmax (in vivo [9]): ~900 ng/mL | Diffusion of the peptide in rat brain parenchyma [10]: less than 1 mm | LCSF: cisternal ratio at steady state [11]: ~1: 0.02 | Plasma concentration relative to that in the cisterna [11]: approximately 0.1 times | Ratio of LCSF concentrations at infusion doses 1 and 5 µg/hr [11]: approximately 1: 4 | Terminal elimination T1/2 after termination of continuous infusion [11]: 2.47 h | Time to peak plasma level [11]: ≤ 8 h | Plasma concentration at steady state, 8–48 hr group mean ([11]; male, beagle, 5 ug/hr): 1.12 ng/mL | CL/F (in vivo [12]; CL/F (infusion rate divided by steady-state concentration)): 134 mL/min | level at 48 h (in vivo [12]; male, 5 ug/hr): 13.5 ng/mL
